Reference: the supplement of paper PMC10307832

Key:
Assay in all cases: relative viability (nuclei count vs DMSO), 5 days (fraction); higher = more cells survive
NVP-TAE684 + OSI-027 = compound: COc1cc(N2CCC(N3CCN(C)CC3)CC2)ccc1Nc1ncc(Cl)c(Nc2ccccc2S(=O)(=O)C(C)C)n1 [NVP-TAE684] + COc1cccc2cc(-c3nc([C@H]4CC[C@H](C(=O)O)CC4)n4ncnc(N)c34)[nH]c12 [OSI-027] (partner 0.5 µM)
Summary of the method: (§1)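 Cells from lung cancer lines were seeded into 1536-well plates and, one day later, dosed by pin tool. Treatments were either a single drug or a fixed dose of an anchor drug with five library-drug doses (not always all listed) in √10 steps. After 5 days, nuclei were stained in a one-step fixation (final 0.05% Triton X-100, 1% formaldehyde, 1 ug/ml Hoechst) and counted on 4× images, and relative viability is the treated-to-vehicle nuclei ratio, as the median of duplicate plates.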

NVP-TAE684 + AZD7762 = compound: COc1cc(N2CCC(N3CCN(C)CC3)CC2)ccc1Nc1ncc(Cl)c(Nc2ccccc2S(=O)(=O)C(C)C)n1 [NVP-TAE684] + NC(=O)Nc1cc(-c2cccc(F)c2)sc1C(=O)N[C@H]1CCCNC1 [AZD7762] (partner 0.2 µM)
Summary of the method: as §1

CUDC-101 + Vorinostat = compound: C#Cc1cccc(Nc2ncnc3cc(OC)c(OCCCCCCC(=O)NO)cc23)c1 [CUDC-101] + O=C(CCCCCCC(=O)Nc1ccccc1)NO [Vorinostat] (partner 1 µM)
Summary of the method: as §1

[1] = compound: C1=CC=C2C(=C1)N=C(S2)C(C#N)C3=NC(=NC=C3)NCCC4=CN=CC=C4 + Cc1nc(NC(=O)N2CCC[C@H]2C(N)=O)sc1-c1ccnc(C(C)(C)C(F)(F)F)c1 [Alpelisib] (partner 2 µM)
Summary of the method: as §1

NVP-TAE684 + Linsitinib = compound: COc1cc(N2CCC(N3CCN(C)CC3)CC2)ccc1Nc1ncc(Cl)c(Nc2ccccc2S(=O)(=O)C(C)C)n1 [NVP-TAE684] + C[C@]1(O)C[C@@H](c2nc(-c3ccc4ccc(-c5ccccc5)nc4c3)c3c(N)nccn32)C1 [Linsitinib] (partner 1 µM)
Summary of the method: as §1

Cell Line	relative viability (NVP-TAE684 + OSI-027; first compound 0.6325 µM)	relative viability (NVP-TAE684 + OSI-027; first compound 2 µM)	relative viability (NVP-TAE684 + AZD7762; first compound 0.2 µM)	relative viability (NVP-TAE684 + AZD7762; first compound 0.6325 µM)	relative viability (NVP-TAE684 + AZD7762; first compound 2 µM)	relative viability (CUDC-101 + Vorinostat; first compound 0.01 µM)	relative viability (CUDC-101 + Vorinostat; first compound 0.03162 µM)	relative viability (CUDC-101 + Vorinostat; first compound 0.1 µM)	relative viability (CUDC-101 + Vorinostat; first compound 0.3162 µM)	relative viability (CUDC-101 + Vorinostat; first compound 1 µM)	relative viability (NVP-TAE684 + OSI-027; first compound 0.2 µM)	relative viability ([1]; first compound 0.005 µM)	relative viability ([1]; first compound 0.01581 µM)	relative viability ([1]; first compound 0.05 µM)	relative viability ([1]; first compound 0.1581 µM)	relative viability ([1]; first compound 0.5 µM)	relative viability (NVP-TAE684 + Linsitinib; first compound 0.2 µM)	relative viability (NVP-TAE684 + Linsitinib; first compound 0.6325 µM)	relative viability (NVP-TAE684 + Linsitinib; first compound 2 µM)
NCI-H522	0.702	0.554	0.91	0.938	0.744	0.758	0.769	1.09	0.921	0.779	–	–	–	–	–	–	–	–	–
NCI-H661	0.821	0.585	–	–	–	0.783	0.764	0.748	0.534	0.362	0.717	0.632	0.482	0.61	0.841	0.798	0.454	0.58	0.625
Calu-6	–	–	–	–	–	–	–	–	–	–	–	0.957	0.921	0.921	1.03	0.998	0.805	0.935	0.634
NCI-H2228	0.137	0.16	–	–	–	0.611	0.575	0.585	0.783	0.526	0.247	0.513	0.715	0.754	0.818	0.524	0.458	0.321	0.285
NCI-H1703	–	–	0.0907	0.102	0.0966	–	–	–	–	–	–	0.338	0.31	0.344	0.362	0.357	0.862	0.932	0.588
SW 1573	0.455	0.226	–	–	–	0.979	0.689	0.675	0.773	0.468	0.741	0.628	0.726	–	0.803	0.686	0.907	0.692	0.795
SK-MES-1	0.529	0.352	–	–	–	1.04	1.04	1.1	1.12	0.915	0.447	1.17	0.979	1.12	1.14	0.859	0.985	1.05	0.837
NCI-H1623	0.402	0.34	–	–	–	–	–	–	–	–	0.337	–	–	–	–	–	–	–	–
NCI-H2023	0.258	0.101	–	–	–	0.781	0.654	0.716	0.703	0.435	0.412	0.625	0.659	0.649	0.681	0.404	0.517	0.669	0.265
ChaGo-K-1	0.546	0.416	1.02	0.836	–	0.756	0.727	0.79	0.698	0.578	0.589	–	–	–	–	–	–	–	–
NCI-H1563	0.678	0.596	–	–	–	–	–	–	–	–	0.736	0.924	0.869	0.947	0.962	0.861	1.07	1.25	–
EBC-1	–	–	–	–	–	–	–	–	–	–	–	0.819	0.935	0.76	0.829	0.925	0.784	0.785	0.745
NCI-H1648	0.226	0.216	0.677	0.56	0.399	0.631	0.378	0.333	0.225	0.22	0.255	–	–	–	–	–	–	–	–
